Consider 3 compounds from publication PMC8544286, “Screening and Identification of a Novel Anti-tuberculosis Compound That Targets Deoxyuridine 5′-Triphosphate Nucleotidohydrolase” (Frontiers in Microbiology, 2021).

One assay deals with Mt-P79A-dUTPase (Mycobacterium tuberculosis, UniProt P9WNS5, P79A). Format: binding.
Assay [1] relates to multidrug-resistant strain MDR-FJ05120. The assay can be described thus: microbe, parasite or virus in culture. The assay is classed as cell-based. The conditions noted are these: Mycobacterium tuberculosis, 168 h.
For assay [2], the system named is extensive drug-resistant strain XDR-XZ06008. Nature of the assay: microbe, parasite or virus in culture. The assay is classed as cell-based. As to conditions: Mycobacterium tuberculosis, 168 h.
Assay [3] concerns extensive drug-resistant strain XDR-FJ05195. Nature of the assay: microbe, parasite or virus in culture. Format: cell-based. As to conditions: Mycobacterium tuberculosis, 168 h.
In assay [4] the test system is multidrug-resistant strain MDR-FJ05189. Nature of the assay: microbe, parasite or virus in culture. The assay is classed as cell-based. The conditions noted are these: Mycobacterium tuberculosis, 168 h.
Setting [5] is: […], MABA, 7 days at 37°C, read-out: MIC.

Values after ≈ are worked out from the molar mass of the structure shown. Where two headings read alike, the source gives them in different places.

For `C=CCn1c(/C=C/c2ccccc2)nc2ccccc21` [F0414], the “SPR binding to Mt-P79A-dUTPase” value at Mt-P79A-dUTPase is listed as “much weaker affinity”. The MIC is 8 µg/mL (≈ 30.7 µM) in assay [1] (setting [5]), 8 µg/mL (≈ 30.7 µM) in assay [2] (setting [5]), 2 µg/mL (≈ 7.68 µM) in assay [3] (setting [5]) and 2 µg/mL (≈ 7.68 µM) in assay [4] (setting [5]).
As for `NNC(=O)c1ccncc1` [Isoniazid], the MIC was 4 µg/mL (≈ 29.2 µM) in assay [1] (setting [5]), more than 256 µg/mL in assay [2] (setting [5]), more than 256 µg/mL in assay [3] (setting [5]) and less than 0.5 µg/mL in assay [4] (setting [5]).
With `CO[C@H]1/C=C/O[C@@]2(C)Oc3c(C)c(O)c4c(O)c(c(/C=N/N5CCN(C)CC5)c(O)c4c3C2=O)NC(=O)/C(C)=C\C=C\[C@H](C)[C@H](O)[C@@H](C)[C@@H](O)[C@@H](C)[C@H](OC(C)=O)[C@@H]1C` [Rifampicin], the MIC in assay [1] was more than 256 µg/mL; in assay [2] it was more than 256 µg/mL; in assay [3], 4 µg/mL (≈ 4.86 µM); in assay [4], more than 256 µg/mL.
